# Results: ChEMBL document CHEMBL5113380, “Functionalized quinoxalinones as privileged structures with broad-ranging pharmacological activities” (Eur J Med Chem, 2022)
# How the values were obtained:
# [1] = Drug metabolism in human liver microsomes; assay type: ADME, Microsome; details: read-out: Drug metabolism
# [2] = target: T1, Fibroblast growth factor receptor 1 (Homo sapiens, UniProt P11362); test: Inhibition of FGFR1 (unknown origin) using ULight-JAK-1 (Tyr1023) peptide as substrate incubated for 90 mins and measured after 1 hr by LANCE Ultra TR-FRET assay
# Target sequence in this assay (P11362 whole entry): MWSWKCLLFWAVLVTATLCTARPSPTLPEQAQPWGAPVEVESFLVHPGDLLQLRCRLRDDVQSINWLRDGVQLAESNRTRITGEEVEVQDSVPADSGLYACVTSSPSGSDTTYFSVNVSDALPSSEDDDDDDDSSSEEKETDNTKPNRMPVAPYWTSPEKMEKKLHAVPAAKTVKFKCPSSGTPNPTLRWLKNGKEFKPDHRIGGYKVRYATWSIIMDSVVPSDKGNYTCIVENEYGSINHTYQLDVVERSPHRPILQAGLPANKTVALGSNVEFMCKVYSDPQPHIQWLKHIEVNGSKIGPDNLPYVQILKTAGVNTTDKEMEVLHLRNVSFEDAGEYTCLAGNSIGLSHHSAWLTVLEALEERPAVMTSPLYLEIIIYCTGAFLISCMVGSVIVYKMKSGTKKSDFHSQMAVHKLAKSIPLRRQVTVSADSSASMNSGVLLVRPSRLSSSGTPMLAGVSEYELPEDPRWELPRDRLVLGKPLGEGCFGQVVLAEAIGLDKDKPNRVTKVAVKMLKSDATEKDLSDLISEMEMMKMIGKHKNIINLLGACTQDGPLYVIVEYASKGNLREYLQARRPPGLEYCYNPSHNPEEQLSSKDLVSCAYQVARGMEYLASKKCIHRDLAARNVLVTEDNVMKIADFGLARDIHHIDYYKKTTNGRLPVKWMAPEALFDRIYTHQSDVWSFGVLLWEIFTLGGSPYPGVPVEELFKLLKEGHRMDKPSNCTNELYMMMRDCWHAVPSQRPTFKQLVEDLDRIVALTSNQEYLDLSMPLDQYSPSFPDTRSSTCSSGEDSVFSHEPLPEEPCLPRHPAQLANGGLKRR
# HeLa 229 = test: Antiproliferative activity against human HeLa 229 cells after 72 hrs by MTT assay; assay type: functional, cell-based; details: HeLa 229, 72 h
# NCI-H460 [3] = test: Antiproliferative activity against human NCI-H460 cells after 72 hrs by MTT assay; assay type: functional, cell-based; details: NCI-H460, 72 h
# HCT-116 = test: Antiproliferative activity against human HCT-116 cells after 72 hrs by MTT assay; assay type: functional, cell-based; details: HCT-116, 72 h
# B16-F10 = test: Antiproliferative activity against mouse B16-F10 cells after 72 hrs by MTT assay; assay type: functional, cell-based; details: B16-F10, 72 h
# L02 = test: Antiproliferative activity against human HL7702 cells after 72 hrs by MTT assay; assay type: functional, cell-based; details: L02, 72 h
# [4] = target: T1, Fibroblast growth factor receptor 1; test: Inhibition of FGFR1 (unknown origin) using ULight-JAK-1 (Tyr1023) peptide as substrate incubated for 90 mins at 10 uM and measured after 1 hr by LANCE Ultra TR-FRET assay relative to control
# Target sequence in this assay (P11362 22-822 limits assumed): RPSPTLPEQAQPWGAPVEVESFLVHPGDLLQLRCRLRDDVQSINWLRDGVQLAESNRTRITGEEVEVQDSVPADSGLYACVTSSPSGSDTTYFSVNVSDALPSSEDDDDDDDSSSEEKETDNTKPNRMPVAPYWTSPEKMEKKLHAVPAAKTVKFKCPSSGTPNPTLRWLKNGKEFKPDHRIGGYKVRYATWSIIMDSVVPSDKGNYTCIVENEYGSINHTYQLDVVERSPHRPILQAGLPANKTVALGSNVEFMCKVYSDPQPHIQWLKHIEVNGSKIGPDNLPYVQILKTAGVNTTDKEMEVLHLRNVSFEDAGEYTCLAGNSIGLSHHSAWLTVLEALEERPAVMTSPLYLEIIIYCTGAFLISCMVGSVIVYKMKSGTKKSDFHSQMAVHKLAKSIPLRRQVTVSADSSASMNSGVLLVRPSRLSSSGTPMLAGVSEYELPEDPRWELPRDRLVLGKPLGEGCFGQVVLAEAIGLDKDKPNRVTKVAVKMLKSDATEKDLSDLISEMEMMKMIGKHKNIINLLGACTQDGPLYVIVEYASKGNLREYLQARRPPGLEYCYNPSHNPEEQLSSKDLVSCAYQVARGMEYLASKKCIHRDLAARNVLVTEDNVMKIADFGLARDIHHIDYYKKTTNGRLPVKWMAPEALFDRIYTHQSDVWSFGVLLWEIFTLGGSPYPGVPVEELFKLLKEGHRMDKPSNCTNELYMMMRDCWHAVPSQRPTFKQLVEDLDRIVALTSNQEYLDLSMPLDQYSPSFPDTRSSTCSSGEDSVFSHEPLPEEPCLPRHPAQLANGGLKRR
# Pseudomonas aeruginosa = test: Antibacterial activity against Pseudomonas aeruginosa; assay type: functional
# Escherichia coli = test: Antibacterial activity against Escherichia coli; assay type: functional
# [5] = tested on: Geobacillus stearothermophilus; test: Antibacterial activity against Bacillus stearothermophilus; assay type: functional
# Bacillus subtilis = test: Antibacterial activity against Bacillus subtilis; assay type: functional
# Bacillus anthracis = test: Antibacterial activity against Bacillus anthracis; assay type: functional
# Enterococcus faecalis = test: Antibacterial activity against Enterococcus faecalis; assay type: functional
# Bacillus cereus = test: Antibacterial activity against Bacillus cereus; assay type: functional
# Klebsiella pneumoniae = test: Antibacterial activity against Klebsiella pneumoniae; assay type: functional
# Shigella dysenteriae = test: Antibacterial activity against Shigella dysenteriae; assay type: functional
# [6] = target: Fibroblast growth factor receptor 3 (Homo sapiens, UniProt P22607); test: Inhibition of FGFR3 (unknown origin)
# [7] = target: Glutamate [NMDA] receptor; test: Displacement of [3H]L-689560 from NMDA receptor (unknown origin); assay type: protein-complex assay, Homo sapiens
# [8] = target: Glutamate [NMDA] receptor; test: Displacement of [3H]NMDA from NMDA receptor (unknown origin); assay type: protein-complex assay, Homo sapiens
# [9] = Aqueous solubility of the compound; assay type: physicochemical; details: buffer
# Trypanosoma brucei = test: Antitrypanosomal activity against Trypanosoma brucei; assay type: functional, organism-based
# [10] = Cytotoxicity against rat myoblast L6 cells; assay type: toxicity, cell-based
# [11] = Ratio IC50 for cytotoxicity against rat myoblast L6 cells over IC50 for antitrypanosomal activity against Trypanosoma brucei; assay type: toxicity, cell-based; details: read-out: Ratio IC50
# Rattus norvegicus = test: Antiinflammatory activity in rat model of hind paw edema assessed as paw thickness at 0.9 mg per 100 g of body weight measured after 4 hrs; assay type: functional
# HeLa S3 = test: Cytotoxicity against human HeLa S3 cells; assay type: functional, cell-based
# [12] = target: Hepatocyte growth factor receptor (Homo sapiens, UniProt P08581); test: Inhibition of c-MET (unknown origin)
# HT-29 = test: Antiproliferative activity against human HT-29 cells; assay type: functional, cell-based
# A549 = test: Antiproliferative activity against human A549 cells; assay type: functional, cell-based
# NCI-H460 [13] = test: Antiproliferative activity against human NCI-H460 cells; assay type: functional, cell-based
# [14] = target: Platelet-derived growth factor receptor beta (Homo sapiens, UniProt P09619); test: Inhibition of PDGFR-beta (unknown origin)
# Anopheles sp. [15] = test: Larvicidal activity against Anopheles at 1 ug/ml; assay type: functional; details: dose 1.0 µg/ml
# Anopheles sp. [16] = test: Larvicidal activity against Anopheles at 0.5 ug/ml; assay type: functional; details: dose 0.5 µg/ml
# Anopheles sp. [17] = test: Larvicidal activity against Anopheles at 0.25 ug/ml; assay type: functional; details: dose 0.25 µg/ml
# Anopheles sp. [18] = test: Larvicidal activity against Anopheles at 0.1 ug/ml; assay type: functional; details: dose 0.1 µg/ml
# Candida = test: Antifungal activity against Candida species; assay type: functional
# Staphylococcus aureus = test: Antibacterial activity against Staphylococcus aureus; assay type: functional
# [19] = target: Kappa-type opioid receptor (Homo sapiens, UniProt P41145); test: Antagonist at KOR expressed in human U2OS cells measured by High content imaging based beta-arrestin translocation assay; assay type: cell-based
# [20] = target: Glutamate receptor ionotropic AMPA (Homo sapiens, UniProt P42261+P42262+P42263+P48058); test: Antagonist activity at AMPA receptor (unknown origin); assay type: protein-complex assay
# [21] = Binding affinity to estrogen receptor (unknown origin); parameters: species or system Homo sapiens
# Homo sapiens [22] = organism: Homo sapiens; test: Binding affinity to estrogen receptor (unknown origin) relative to control
# [23] = Binding affinity to Creatine kinase (CK) (unknown origin); parameters: species or system Homo sapiens
# Homo sapiens [24] = organism: Homo sapiens; test: Binding affinity to Creatine kinase (CK) (unknown origin) relative to control
# [25] = Aqueous solubility of the compound at pH 7.4; assay type: physicochemical; details: buffer
# [26] = Metabolic stability in rat liver microsomes assessed as half-life; assay type: ADME, Microsome
# Kappa-type opioid receptor, sequence (P41145 whole entry): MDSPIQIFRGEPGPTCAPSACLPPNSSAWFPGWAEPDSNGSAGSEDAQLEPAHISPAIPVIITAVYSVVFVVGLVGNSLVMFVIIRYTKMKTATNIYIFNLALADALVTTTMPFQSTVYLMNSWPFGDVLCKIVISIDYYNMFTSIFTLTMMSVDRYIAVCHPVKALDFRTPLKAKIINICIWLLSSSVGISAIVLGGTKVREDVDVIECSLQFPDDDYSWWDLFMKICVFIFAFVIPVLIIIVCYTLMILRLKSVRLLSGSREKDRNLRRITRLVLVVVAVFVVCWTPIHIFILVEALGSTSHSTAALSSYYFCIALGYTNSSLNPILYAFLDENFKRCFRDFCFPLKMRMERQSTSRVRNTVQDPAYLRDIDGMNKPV
# Platelet-derived growth factor receptor beta, sequence (P09619 whole entry): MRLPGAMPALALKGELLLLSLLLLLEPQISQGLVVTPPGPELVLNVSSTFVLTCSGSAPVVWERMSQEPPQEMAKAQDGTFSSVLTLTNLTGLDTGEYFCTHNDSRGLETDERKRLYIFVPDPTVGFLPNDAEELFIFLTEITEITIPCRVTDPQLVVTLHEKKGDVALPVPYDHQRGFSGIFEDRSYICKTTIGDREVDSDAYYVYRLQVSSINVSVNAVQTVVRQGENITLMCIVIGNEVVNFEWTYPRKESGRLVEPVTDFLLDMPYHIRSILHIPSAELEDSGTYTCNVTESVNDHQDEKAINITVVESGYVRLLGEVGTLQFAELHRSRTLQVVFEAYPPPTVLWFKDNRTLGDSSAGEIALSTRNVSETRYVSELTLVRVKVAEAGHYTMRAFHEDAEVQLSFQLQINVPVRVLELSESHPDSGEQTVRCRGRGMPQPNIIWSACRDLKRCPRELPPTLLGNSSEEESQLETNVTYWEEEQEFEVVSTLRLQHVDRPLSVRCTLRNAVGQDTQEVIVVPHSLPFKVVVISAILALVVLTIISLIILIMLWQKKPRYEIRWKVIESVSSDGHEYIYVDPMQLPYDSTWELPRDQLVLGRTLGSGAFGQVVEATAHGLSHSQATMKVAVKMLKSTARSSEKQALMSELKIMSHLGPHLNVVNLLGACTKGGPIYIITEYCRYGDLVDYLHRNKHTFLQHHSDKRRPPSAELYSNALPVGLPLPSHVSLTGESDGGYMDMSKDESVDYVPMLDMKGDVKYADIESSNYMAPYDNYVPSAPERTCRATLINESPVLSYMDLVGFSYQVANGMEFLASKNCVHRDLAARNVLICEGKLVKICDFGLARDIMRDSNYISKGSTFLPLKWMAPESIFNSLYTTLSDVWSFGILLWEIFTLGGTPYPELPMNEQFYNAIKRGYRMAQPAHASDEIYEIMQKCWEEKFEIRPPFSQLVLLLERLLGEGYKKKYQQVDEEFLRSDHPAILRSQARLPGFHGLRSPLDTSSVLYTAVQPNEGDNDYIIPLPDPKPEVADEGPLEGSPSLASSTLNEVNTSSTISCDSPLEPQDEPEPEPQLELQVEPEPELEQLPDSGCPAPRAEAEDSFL
# Hepatocyte growth factor receptor, sequence (P08581 whole entry): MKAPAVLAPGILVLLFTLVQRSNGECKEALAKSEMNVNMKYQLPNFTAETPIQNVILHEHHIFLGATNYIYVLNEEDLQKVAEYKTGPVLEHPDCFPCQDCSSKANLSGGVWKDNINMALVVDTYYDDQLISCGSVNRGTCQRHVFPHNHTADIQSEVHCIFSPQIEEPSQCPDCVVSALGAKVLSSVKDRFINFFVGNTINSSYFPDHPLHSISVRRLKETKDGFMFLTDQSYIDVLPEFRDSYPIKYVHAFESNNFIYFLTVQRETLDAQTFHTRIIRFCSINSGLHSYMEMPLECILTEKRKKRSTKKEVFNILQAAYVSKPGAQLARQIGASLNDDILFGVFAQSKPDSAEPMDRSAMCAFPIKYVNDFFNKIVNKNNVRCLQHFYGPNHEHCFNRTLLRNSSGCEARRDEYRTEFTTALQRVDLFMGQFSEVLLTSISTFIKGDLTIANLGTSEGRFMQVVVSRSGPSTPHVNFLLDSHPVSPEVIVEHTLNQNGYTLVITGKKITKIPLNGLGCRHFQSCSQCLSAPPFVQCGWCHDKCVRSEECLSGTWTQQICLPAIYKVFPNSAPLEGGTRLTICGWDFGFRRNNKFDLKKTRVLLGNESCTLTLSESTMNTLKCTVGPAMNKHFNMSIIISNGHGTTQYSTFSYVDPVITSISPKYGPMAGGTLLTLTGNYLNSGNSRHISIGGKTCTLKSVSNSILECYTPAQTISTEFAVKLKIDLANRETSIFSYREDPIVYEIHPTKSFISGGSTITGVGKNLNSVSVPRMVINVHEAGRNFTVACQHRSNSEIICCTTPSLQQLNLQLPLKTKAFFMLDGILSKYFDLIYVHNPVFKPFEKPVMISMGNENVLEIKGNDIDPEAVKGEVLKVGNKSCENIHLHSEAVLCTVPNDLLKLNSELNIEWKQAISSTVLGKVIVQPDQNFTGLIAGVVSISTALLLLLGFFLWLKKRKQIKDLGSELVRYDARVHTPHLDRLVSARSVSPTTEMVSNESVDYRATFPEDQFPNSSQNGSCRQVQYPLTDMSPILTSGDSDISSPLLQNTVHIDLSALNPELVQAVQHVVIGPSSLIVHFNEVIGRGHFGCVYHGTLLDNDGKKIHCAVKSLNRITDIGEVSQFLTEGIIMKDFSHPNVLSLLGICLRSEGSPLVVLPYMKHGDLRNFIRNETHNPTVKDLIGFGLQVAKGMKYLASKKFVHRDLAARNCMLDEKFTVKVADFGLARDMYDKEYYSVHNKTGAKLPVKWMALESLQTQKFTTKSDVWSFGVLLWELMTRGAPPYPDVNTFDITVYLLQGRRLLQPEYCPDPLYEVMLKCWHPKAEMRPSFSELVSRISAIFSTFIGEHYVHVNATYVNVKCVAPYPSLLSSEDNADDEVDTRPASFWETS
structure (smiles),measurement,setting,value
O=c1c(-c2cccc([N+](=O)[O-])c2)nc2ccccc2n1Cc1ccccc1,metabolised,[1],< 40%
O=c1[nH]c2ccccc2nc1/C=C/c1ccccn1,IC50,[2],15.3 µM
same,IC50,HeLa 229,2.89 µM
same,IC50,NCI-H460 [3],0.46 µM
same,IC50,HCT-116,0.27 µM
same,IC50,B16-F10,0.058 µM
same,IC50,L02,> 100 µM
same,inhibition,[4],79.3%
O=C1CC(c2ccccc2)=NN1c1nc2ccccc2[nH]c1=O,MIC,Pseudomonas aeruginosa,31.3 mg/L
same,MIC,Escherichia coli,15.6 mg/L
same,MIC,[5],15.6 mg/L
same,MIC,Bacillus subtilis,7.8 mg/L
same,MIC,Bacillus anthracis,7.8 mg/L
same,MIC,Enterococcus faecalis,7.8 mg/L
same,MIC,Bacillus cereus,7.8 mg/L
same,MIC,Klebsiella pneumoniae,7.8 mg/L
same,MIC,Shigella dysenteriae,62.5 mg/L
O=c1c(/C=C/c2ccccc2Cl)nc2ccccc2n1Cc1ccccc1,IC50,[2],25.7 µM
same,IC50,[6],94.5 µM
same,IC50,HeLa 229,> 50 µM
same,IC50,NCI-H460 [3],18.1 µM
same,IC50,HCT-116,> 50 µM
same,IC50,B16-F10,3.39 µM
same,IC50,L02,> 100 µM
CCC(c1c(Cl)c(Cl)cc2nc(O)c(O)nc12)n1cnnc1 (stereo not given),IC50,[7],0.0026 µM
same,IC50,[8],0.09 µM
same,solubility,[9],> 5 mg/mL
O=C1Nc2cc([N+](=O)[O-])ccc2N2CCCC12 (stereo not given),IC50,Trypanosoma brucei,2.7 µM
same,IC50,[10],46.7 µM
same,selectivity ratio,[11],17.4
O=c1[nH]c2ccccc2nc1Cc1nnc(S)n1-c1ccccc1,Activity,Rattus norvegicus,0.47 mm
N#Cc1ccc2c(c1)N1CCCCC1C(=O)N2 (stereo not given),IC50,HeLa S3,7.6 µM
O=C(Nc1ccc(Oc2ccnc(NC(=O)C3CC3)c2)cc1)c1nc2ccccc2n(-c2ccc(F)cc2)c1=O,IC50,[12],0.00191 µM
same,IC50,HT-29,0.65 µM
same,IC50,A549,1.57 µM
same,IC50,NCI-H460 [13],0.94 µM
Cn1c(=O)c(/C=C/c2ccccn2)nc2ccccc21,IC50,[2],26.7 µM
same,IC50,[14],> 89.5 µM
same,IC50,HeLa 229,14.6 µM
same,IC50,NCI-H460 [3],5.78 µM
same,IC50,HCT-116,7.63 µM
same,IC50,B16-F10,6.64 µM
same,IC50,L02,53.7 µM
O=C(Cc1nc2ccccc2[nH]c1=O)Nn1c(-c2ccc(Cl)cc2)csc1=S,Activity,Rattus norvegicus,0.45 mm
COc1ccc2nc(-c3ccccc3)c(=O)n(CC#N)c2c1,Activity,Anopheles sp. [15],73.7%
same,Activity,Anopheles sp. [16],66.7%
same,Activity,Anopheles sp. [17],66.7%
same,Activity,Anopheles sp. [18],60%
O=c1[nH]c2cc3cccnc3c(Cl)c2nc1CBr,MIC,Pseudomonas aeruginosa,31.2 mg/L
same,MIC,Candida,31.2 mg/L
same,MIC,Escherichia coli,31.2 mg/L
same,MIC,Staphylococcus aureus,31.2 mg/L
COc1ccc(N2CCN(CCCNC(=O)Cn3c(=O)c4cccn4c4cccnc43)CC2)cc1,IC50,[19],0.173 µM
C=Cn1c(=O)c(-c2ccccc2)nc2ccc(OC)cc21,Activity,Anopheles sp. [15],100%
same,Activity,Anopheles sp. [16],100%
same,Activity,Anopheles sp. [17],100%
same,Activity,Anopheles sp. [18],80%
Cc1cc2[nH]c(=O)c(=O)n(C[C@@H](N)C(=O)O)c2cc1C,EC50,[20],300 µM
CN1CC(=O)N(C)c2cc([N+](=O)[O-])ccc21,IC50,Trypanosoma brucei,3.6 µM
same,IC50,[10],78.2 µM
same,selectivity ratio,[11],21.6
C/C(=N\Nc1nc2ccccc2[nH]c1=O)c1cc2cc(Cl)ccc2oc1=O,MIC,Escherichia coli,7.8 mg/L
same,MIC,Staphylococcus aureus,15.6 mg/L
same,MIC,[5],7.8 mg/L
same,MIC,Bacillus subtilis,7.8 mg/L
same,MIC,Bacillus anthracis,7.8 mg/L
same,MIC,Bacillus cereus,7.8 mg/L
same,MIC,Klebsiella pneumoniae,7.8 mg/L
same,MIC,Shigella dysenteriae,15.6 mg/L
CC[C@H]1C(=O)N(CC)c2ccc(F)cc2N1C(=O)c1ccc(O)cc1O,IC50,[21],0.0054 µM
same,Activity,Homo sapiens [22],92%
same,EC50,[23],0.05 µM
same,Activity,Homo sapiens [24],44%
same,solubility,[25],> 0.1 mg/mL
same,half-life,[26],> 30 min
